Assays:
[1] = 101.33 kPa, Liquid; for electrical conductivity: Alternating current cell with electrodes; for viscosity: Falling or rolling sphere viscometry; for speed of sound: Sing-around technique in a fixed-path interferometer; for mass density: Vibrating tube method
[2] = refractive index (Na D-line) (dimensionless); details: 303.15 K; 101.33 kPa; Liquid; Standard Abbe refractometry
[3] = wn = mass fraction of the nth substance listed; details: 303.15 K, 100 kPa, Liquid; for electrical conductivity: Alternating current cell with electrodes; for viscosity: Falling or rolling sphere viscometry; for speed of sound: Frequency=3 MHz, Sing-around technique in a fixed-path interferometer; for mass density: Vibrating tube method

CCCC[NH2+]CCO.O=C([O-])C(F)(F)F [N-(2-hydroxyethyl)butan-1-aminium 2,2,2-trifluoroacetate]
[1]
Details | electrical conductivity [S/m] | mass density [kg/m3] | speed of sound [m/s] | viscosity [mPa·s]
303.15 K | 0.0391 | 1203.34 | 1282.6 | 211.7
308.15 K | 0.0494 | 1198.07 | 1270 | 171.1
313.15 K | 0.0596 | 1194.18 | 1257.7 | 135.3
318.15 K | 0.0703 | 1190.28 | 1245.7 | 104.6
323.15 K | 0.0811 | 1186.37 | 1233.9 | 81.7
328.15 K | 0.0916 | 1182.48 | 1222.4 | 64.7
333.15 K | 0.103 | 1178.6 | 1211 | 52.3
338.15 K | 0.116 | 1174.73 | 1199.8 | 42.8
343.15 K | 0.128 | 1170.87 | 1188.7 | 35.6

Details | refractive index
[2] | 1.4126

CCCC[NH2+]CCO.O=C([O-])C(F)(F)F [N-(2-hydroxyethyl)butan-1-aminium 2,2,2-trifluoroacetate] + O
[3]
Details | electrical conductivity [S/m] | mass density [kg/m3] | speed of sound [m/s] | viscosity [mPa·s]
w2 = 0.002186 | 0.0391 | 1203.34 | 1282.6 | 211.7
w2 = 0.003652 | 0.0393 | – | – | –
w2 = 0.003864 | – | 1203.51 | 1282.9 | 211.1
w2 = 0.004819 | 0.0394 | – | – | –
w2 = 0.005373 | – | 1203.68 | 1283.2 | 210.4
w2 = 0.006342 | 0.0396 | – | – | –
w2 = 0.006759 | – | 1203.81 | 1283.4 | 209.8
w2 = 0.007483 | 0.0398 | – | – | –
w2 = 0.008675 | – | 1204 | 1283.7 | 209.1

CCCC[NH2+]CCO.O=[N+]([O-])[O-] [N-(2-hydroxyethyl)butan-1-aminium nitrate]
[1]
Details | electrical conductivity [S/m] | mass density [kg/m3] | speed of sound [m/s] | viscosity [mPa·s]
303.15 K | 0.0583 | 1114.69 | 1608.3 | 272.1
308.15 K | 0.0701 | 1111.58 | 1595.7 | 202.9
313.15 K | 0.085 | 1108.47 | 1583.5 | 154
318.15 K | 0.0982 | 1105.35 | 1571.5 | 119.2
323.15 K | 0.115 | 1102.25 | 1559.7 | 93.3
328.15 K | 0.136 | 1099.15 | 1548.1 | 74.1
333.15 K | 0.16 | 1096.07 | 1536.7 | 59.6
338.15 K | 0.182 | 1093 | 1525.4 | 48.8
343.15 K | 0.2 | 1089.95 | 1514.3 | 40.6

Details | refractive index
[2] | 1.4675

CCCC[NH2+]CCO.O=[N+]([O-])[O-] [N-(2-hydroxyethyl)butan-1-aminium nitrate] + O
[3]
Details | electrical conductivity [S/m] | mass density [kg/m3] | speed of sound [m/s] | viscosity [mPa·s]
w2 = 0.002318 | 0.0583 | 1114.69 | 1608.3 | 272.1
w2 = 0.003573 | 0.0585 | – | – | –
w2 = 0.003967 | – | 1114.88 | 1608.7 | 271.5
w2 = 0.004837 | 0.0587 | – | – | –
w2 = 0.005068 | – | 1115.01 | 1609 | 271.1
w2 = 0.006108 | 0.0589 | – | – | –
w2 = 0.006904 | – | 1115.21 | 1609.4 | 270.5
w2 = 0.007452 | 0.0591 | – | – | –
w2 = 0.008717 | – | 1115.39 | 1609.8 | 269.8

Reference: the NIST ThermoML archive (doi:10.1016/j.jct.2015.09.016)
